Experimental data taken from PubChem BioAssay (NCI).
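Step 1: Grow cells in 96-well plates. Step 2: Expose to compound for 48 hours at 5 concentrations. Step 3: Interpolate endpoints linearly; if unreached, use highest concentration. TGI: concentration producing complete growth inhibition.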

Assays:
Assay in all cases: inhibition of tumour cell growth, NCI panel, 48 h
RXF 393 renal = test system: RXF 393 renal
UACC-62 melanoma = test system: UACC-62 melanoma
HCT-116 colon = test system: HCT-116 colon
OVCAR-8 ovarian = test system: OVCAR-8 ovarian
NCI-H23 lung = test system: NCI-H23 lung
HS 578T breast = test system: HS 578T breast
OVCAR-4 ovarian = test system: OVCAR-4 ovarian
SF-539 CNS = test system: SF-539 CNS
HCT-15 colon = test system: HCT-15 colon
NCI/ADR-RES ovarian = test system: NCI/ADR-RES ovarian
SK-MEL-5 melanoma = test system: SK-MEL-5 melanoma
NCI-H226 lung = test system: NCI-H226 lung
HOP-62 NSCLC = test system: HOP-62 NSCLC
UO-31 renal = test system: UO-31 renal
CAKI-1 renal = test system: CAKI-1 renal
U251 CNS = test system: U251 CNS
SNB-19 CNS = test system: SNB-19 CNS
SF-295 CNS = test system: SF-295 CNS
HT29 colon = test system: HT29 colon
OVCAR-3 ovarian = test system: OVCAR-3 ovarian
SK-MEL-28 melanoma = test system: SK-MEL-28 melanoma
SW-620 colon = test system: SW-620 colon
MCF7 breast = test system: MCF7 breast
CCRF-CEM leukemia = test system: CCRF-CEM leukemia
PC-3 prostate = test system: PC-3 prostate
MDA-MB-231 breast = test system: MDA-MB-231 breast
MOLT-4 leukemia = test system: MOLT-4 leukemia
TK-10 renal = test system: TK-10 renal
IGROV1 ovarian = test system: IGROV1 ovarian
KM12 colon = test system: KM12 colon
EKVX NSCLC = test system: EKVX NSCLC
NCI-H460 lung = test system: NCI-H460 lung
COLO 205 colon = test system: COLO 205 colon
M14 melanoma = test system: M14 melanoma
K-562 leukemia = test system: K-562 leukemia
UACC-257 melanoma = test system: UACC-257 melanoma
SR leukemia = test system: SR leukemia
SNB-75 CNS = test system: SNB-75 CNS
OVCAR-5 ovarian = test system: OVCAR-5 ovarian
A549 NSCLC = test system: A549 NSCLC
SN12C renal = test system: SN12C renal
SK-MEL-2 melanoma = test system: SK-MEL-2 melanoma
HCC-2998 colon = test system: HCC-2998 colon
LOX IMVI melanoma = test system: LOX IMVI melanoma
786-0 renal = test system: 786-0 renal
MDA-MB-435 = test system: MDA-MB-435
SF-268 CNS = test system: SF-268 CNS
BT-549 breast = test system: BT-549 breast
ACHN renal = test system: ACHN renal
NCI-H522 lung = test system: NCI-H522 lung
SK-OV-3 ovarian = test system: SK-OV-3 ovarian

Measured: TGI

CC1(C)N([O-])[N+](=O)C1(C)Br (stereo unspecified)
> 100 µM: RXF 393 renal | UACC-62 melanoma | HCT-116 colon | OVCAR-8 ovarian | NCI-H23 lung | HS 578T breast | OVCAR-4 ovarian | SF-539 CNS | HCT-15 colon | NCI/ADR-RES ovarian | SK-MEL-5 melanoma | NCI-H226 lung | HOP-62 NSCLC | UO-31 renal | CAKI-1 renal | U251 CNS | SNB-19 CNS | SF-295 CNS | HT29 colon | OVCAR-3 ovarian | SK-MEL-28 melanoma | SW-620 colon | MCF7 breast | CCRF-CEM leukemia | PC-3 prostate | MDA-MB-231 breast | MOLT-4 leukemia | TK-10 renal | IGROV1 ovarian | KM12 colon | EKVX NSCLC | NCI-H460 lung | COLO 205 colon | M14 melanoma | K-562 leukemia | UACC-257 melanoma | SR leukemia | SNB-75 CNS | OVCAR-5 ovarian | A549 NSCLC | SN12C renal | SK-MEL-2 melanoma | HCC-2998 colon | LOX IMVI melanoma | 786-0 renal | MDA-MB-435 | SF-268 CNS | BT-549 breast | ACHN renal | NCI-H522 lung | SK-OV-3 ovarian
